Data reported in patent publication US9963442B2, “Pyridones as herbicides” (E I DU PONT DE NEMOURS AND COMPANY, priority 2014, dated 2018).

How the values were obtained:
Type in all cases: in vivo
[1] = tested on: Italian ryegrass (Lolium multiflorum); assay: Test A preemergence, directed soil spray; conditions: approx. 10 days
Excerpt: (§1) Seeds of plant species selected from barnyardgrass (Echinochloa crus-galli), kochia (Kochia scoparia), ragweed (common ragweed, Ambrosia elatior), Italian ryegrass (Lolium multiflorum), giant foxtail (Setaria faberii), and pigweed (Amaranthus retroflexus) were planted into a blend of loam soil and sand and treated preemergence with a directed soil spray using test chemicals formulated in a non-phytotoxic solvent mixture which included a surfactant. At the same time, plants selected from these weed species and also wheat (Triticum aestivum), corn (Zea mays), blackgrass (Alopecurus myosuroides), and galium (catchweed bedstraw, Galium aparine) were planted in pots containing the same blend of loam soil and sand and treated with postemergence applications of test chemicals formulated in the same manner. Plants ranged in height from 2 to 10 cm and were in the one- to two-leaf stage for the postemergence treatment. Treated plants and untreated controls were maintained in a greenhouse for approximately 10 days, after which time all treated plants were compared to untreated controls and visually evaluated for injury. Plant response ratings, summarized in Table A, are based on a 0 to 100 scale where 0 is no effect and 100 is complete control. A dash (-) response means no test result.

[2] = tested on: barnyardgrass (Echinochloa crus-galli); assay: Test A preemergence, directed soil spray; conditions: approx. 10 days
Excerpt: as §1

[3] = tested on: giant foxtail (Setaria faberii); assay: Test A preemergence, directed soil spray; conditions: approx. 10 days
Excerpt: as §1

kochia (Kochia scoparia) [4] = assay: Test A preemergence, directed soil spray; conditions: approx. 10 days
Excerpt: as §1

[5] = tested on: pigweed (Amaranthus retroflexus); assay: Test A preemergence, directed soil spray; conditions: approx. 10 days
Excerpt: as §1

[6] = tested on: ragweed (common ragweed, Ambrosia elatior); assay: Test A preemergence, directed soil spray; conditions: 125 g ai/ha, approx. 10 days
Excerpt: as §1

[7] = tested on: Italian ryegrass (Lolium multiflorum); assay: Test A postemergence application; conditions: approx. 10 days
Excerpt: as §1

[8] = tested on: barnyardgrass (Echinochloa crus-galli); assay: Test A postemergence application; conditions: approx. 10 days
Excerpt: as §1

[9] = tested on: blackgrass (Alopecurus myosuroides); assay: Test A postemergence application; conditions: approx. 10 days
Excerpt: as §1

corn (Zea mays) = assay: Test A postemergence application; conditions: approx. 10 days
Excerpt: as §1

[10] = tested on: galium (catchweed bedstraw, Galium aparine); assay: Test A postemergence application; conditions: approx. 10 days
Excerpt: as §1

[11] = tested on: giant foxtail (Setaria faberii); assay: Test A postemergence application; conditions: approx. 10 days
Excerpt: as §1

kochia (Kochia scoparia) [12] = assay: Test A postemergence application; conditions: approx. 10 days
Excerpt: as §1

[13] = tested on: pigweed (Amaranthus retroflexus); assay: Test A postemergence application; conditions: approx. 10 days
Excerpt: as §1

[14] = tested on: ragweed (common ragweed, Ambrosia elatior); assay: Test A postemergence application; conditions: approx. 10 days
Excerpt: as §1

[15] = tested on: wheat (Triticum aestivum); assay: Test A postemergence application; conditions: approx. 10 days
Excerpt: as §1

[16] = tested on: barnyardgrass (Echinochloa crus-galli); assay: Test B flooded paddy test; design: key: 0 = no effect, 100 = complete control; conditions: Flood, 250 g ai/ha applied to paddy water at 2-leaf stage; visually evaluated after 13 to 15 days; scale 0 (no effect) to 100 (complete control)
Method: (§2) Plant species in the flooded paddy test selected from rice (Oryza sativa), sedge, umbrella (small-flower umbrella sedge, Cyperus difformis), ducksalad (Heteranthera limosa), and barnyardgrass (Echinochloa crus-galli) were grown to the 2-leaf stage for testing. At time of treatment, test pots were flooded to 3 cm above the soil surface, treated by application of test compounds directly to the paddy water, and then maintained at that water depth for the duration of the test. Treated plants and controls were maintained in a greenhouse for 13 to 15 days, after which time all species were compared to controls and visually evaluated. Plant response ratings, summarized in Table B, are based on a scale of 0 to 100 where 0 is no effect and 100 is complete control. A dash (-) response means no test result.

[17] = tested on: ducksalad (Heteranthera limosa); assay: Test B flooded paddy test; design: key: 0 = no effect, 100 = complete control; conditions: Flood, 250 g ai/ha applied to paddy water at 2-leaf stage; visually evaluated after 13 to 15 days; scale 0 (no effect) to 100 (complete control)
Method: as §2

rice (Oryza sativa) = assay: Test B flooded paddy test; design: key: 0 = no effect, 100 = complete control; conditions: Flood, 250 g ai/ha applied to paddy water at 2-leaf stage; visually evaluated after 13 to 15 days; scale 0 (no effect) to 100 (complete control)
Method: as §2

[18] = tested on: sedge, umbrella (small-flower umbrella sedge, Cyperus difformis); assay: Test B flooded paddy test; design: key: 0 = no effect, 100 = complete control; conditions: Flood, 250 g ai/ha applied to paddy water at 2-leaf stage; visually evaluated after 13 to 15 days; scale 0 (no effect) to 100 (complete control)
Method: as §2

## O=c1cccc(Oc2ncc(Cl)cn2)n1-c1ccc(F)cn1 [Compound 9]
[1]; 31 g ai/ha
  Plant response rating (0 to 100 scale, 0 no effect, 100 complete control), Ryegrass, Italian: 0
[1]; 125 g ai/ha
  Plant response rating (0 to 100 scale, 0 no effect, 100 complete control), Ryegrass, Italian: 0
[2]; 31 g ai/ha
  Plant response rating (0 to 100 scale, 0 no effect, 100 complete control), Barnyardgrass: 0
[2]; 125 g ai/ha
  Plant response rating (0 to 100 scale, 0 no effect, 100 complete control), Barnyardgrass: 0
[3]; 31 g ai/ha
  Plant response rating (0 to 100 scale, 0 no effect, 100 complete control), Foxtail, Giant: 10
[3]; 125 g ai/ha
  Plant response rating (0 to 100 scale, 0 no effect, 100 complete control), Foxtail, Giant: 70
Kochia (Kochia scoparia) [4]; 31 g ai/ha
  Plant response rating (0 to 100 scale, 0 no effect, 100 complete control), Kochia: 20
Kochia (Kochia scoparia) [4]; 125 g ai/ha
  Plant response rating (0 to 100 scale, 0 no effect, 100 complete control), Kochia: 50
[5]; 31 g ai/ha
  Plant response rating (0 to 100 scale, 0 no effect, 100 complete control), Pigweed: 50
[5]; 125 g ai/ha
  Plant response rating (0 to 100 scale, 0 no effect, 100 complete control), Pigweed: 80
[6]
  Plant response rating (0 to 100 scale, 0 no effect, 100 complete control), Ragweed: 70
[7]; 31 g ai/ha
  Plant response rating (0 to 100 scale, 0 no effect, 100 complete control), Ryegrass, Italian: 0
[7]; 125 g ai/ha
  Plant response rating (0 to 100 scale, 0 no effect, 100 complete control), Ryegrass, Italian: 20
[8]; 31 g ai/ha
  Plant response rating (0 to 100 scale, 0 no effect, 100 complete control), Barnyardgrass: 0
[8]; 125 g ai/ha
  Plant response rating (0 to 100 scale, 0 no effect, 100 complete control), Barnyardgrass: 10
[9]; 31 g ai/ha
  Plant response rating (0 to 100 scale, 0 no effect, 100 complete control), Blackgrass: 0
[9]; 125 g ai/ha
  Plant response rating (0 to 100 scale, 0 no effect, 100 complete control), Blackgrass: 10
Corn (Zea mays); 31 g ai/ha
  Plant response rating (0 to 100 scale, 0 no effect, 100 complete control), Corn: 10
Corn (Zea mays); 125 g ai/ha
  Plant response rating (0 to 100 scale, 0 no effect, 100 complete control), Corn: 10
[10]; 31 g ai/ha
  Plant response rating (0 to 100 scale, 0 no effect, 100 complete control), Galium: 30
[10]; 125 g ai/ha
  Plant response rating (0 to 100 scale, 0 no effect, 100 complete control), Galium: 60
[11]; 31 g ai/ha
  Plant response rating (0 to 100 scale, 0 no effect, 100 complete control), Foxtail, Giant: 0
[11]; 125 g ai/ha
  Plant response rating (0 to 100 scale, 0 no effect, 100 complete control), Foxtail, Giant: 20
Kochia (Kochia scoparia) [12]; 31 g ai/ha
  Plant response rating (0 to 100 scale, 0 no effect, 100 complete control), Kochia: 70
Kochia (Kochia scoparia) [12]; 125 g ai/ha
  Plant response rating (0 to 100 scale, 0 no effect, 100 complete control), Kochia: 90
[13]; 31 g ai/ha
  Plant response rating (0 to 100 scale, 0 no effect, 100 complete control), Pigweed: 50
[13]; 125 g ai/ha
  Plant response rating (0 to 100 scale, 0 no effect, 100 complete control), Pigweed: 80
[14]; 31 g ai/ha
  Plant response rating (0 to 100 scale, 0 no effect, 100 complete control), Ragweed: 20
[14]; 125 g ai/ha
  Plant response rating (0 to 100 scale, 0 no effect, 100 complete control), Ragweed: 40
[15]; 31 g ai/ha
  Plant response rating (0 to 100 scale, 0 no effect, 100 complete control), Wheat: 0
[15]; 125 g ai/ha
  Plant response rating (0 to 100 scale, 0 no effect, 100 complete control), Wheat: 0
[16]
  Plant response rating, Barnyardgrass: 0
[17]
  Plant response rating, Ducksalad: 60
Rice (Oryza sativa)
  Plant response rating, Rice: 0
[18]
  Plant response rating, Sedge, Umbrella: 40
